Assay results as given in US20190054054A1, “Methods reducing or preventing oxidation of high density lipoprotein (HDL)” (Amarin Pharmaceuticals Ireland Limited, priority 2017, published 2019).
Several values for one entry are separate records, joined by “and”; a condition that tells them apart may be missing. Equal values may be shown once.

Columns and labels:
[1] = Membrane cholesterol domain peak intensity, x-ray diffraction of POPC/cholesterol membranes (Example 9); conditions: 1.5:1 C/P mole ratio; for % change Vs control / Relative Cholesterol Domain Preak Intensity: drug-to-phospholipid mole ratio 1:30; for Relative Cholesterol Domain Preak Intensity: POPC and cholesterol
Protocol: The fatty acid stock solutions were stored at −20° C. until use. […] Samples were shell-dried under nitrogen gas and placed under vacuum for 3 hours to remove residual solvent at room temperature. After desiccation, each sample was resuspended in saline buffer (0.5 mM HEPES, 154 mM NaCl, pH 7.3) to yield a final phospholipid concentration of 2.5 mg/mL. Lipid suspensions were then vortexed for 3 minutes at ambient temperature to form MLVs. Membrane lipid vesicles were oriented for x-ray diffraction analysis as described by others (e.g., Herbette et al., Biophys. […] Briefly, a 100 μL aliquot of each MLV preparation (containing 250 μg MLV) was transferred to a Lucite® sedimentation cell fitted with an aluminum foil substrate designed to collect MLVs into a single membrane pellet upon centrifugation. […] After centrifugal orientation, sample supernatants were aspirated and aluminum foil substrates, each supporting a single membrane pellet, were removed from the sedimentation cells. Sample pellets were dried for 5-10 minutes at ambient conditions, mounted onto curved glass supports, and placed in hermetically-sealed, brass or glass containers (for immediate analysis or temporary storage, respectively). All x-ray diffraction experiments were conducted at 20° C., 74% relative humidity. The latter was established by exposing membrane samples to saturated solutions of L-(+)-tartaric acid (K2C4H4O6.½H2O) for at least 1 hour prior to experimental analysis. Oriented membrane samples were aligned at grazing incidence with respect to a collimated, mono-chromatic CuKα x-ray beam (Kα1 and Kα2 unresolved; λ=1.54 Å) produced by a Rigaku Rotaflex RU-200, high-brilliance microfocus generator (Rigaku-MSC, The Woodlands, Tex.) as previously described (Mason et al., Biophys. J., vol. 55(4), pages 769-778 (1989)). The samples were initially subjected to x-ray diffraction analysis at least 12 hours after formation of the membrane pellets and retested for up to several days. Analytical x-rays were generated by electron bombardment of a rotating copper anode and are filtered through a thin nickel foil to provide monochromatic radiation (λ=1.54 Å). Collimation of the x-ray beam was achieved using a single Franks mirror. Diffraction data were collected on a one-dimensional, position-sensitive electron detector (Hecus X-ray Systems, Graz, Austria) at a sample-to-detector distance of 150 mm from the sample site. The d-space for any given membrane multi bilayer is a measurement of the unit cell periodicity of the membrane lipid bilayer (e.g., the distance from the center of one lipid bilayer to the next including surface hydration), and is calculated from Bragg's Law, h λ=2 d sin θ, where h is the diffraction order, λ is the wavelength of the x-ray radiation (1.54 Å), d is the membrane lipid bilayer unit cell periodicity, and θ is the Bragg angle equal to one-half the angle between the incident beam and scattered beam. […] Routines written in Origin 8.6 (OriginLab Corporation, Northampton, Mass.) were used to determine total peak area (associated with all diffraction peaks in a given pattern) against which the second-order cholesterol domain peak was normalized. The raw data collected in this study was normalized using internal. Data were presented as mean+S.E.M. for (N) separate samples or treatment groups. Differences between groups were analyzed using the two-tailed, Student's t-test (for comparisons between only two groups) or ANOVA followed by Dunnett or Student-Newman-Keuls multiple comparisons post-hoc analysis (for comparisons between three or more groups). Alpha error was set to 0.05 in this study.

HUVECs exposed to oxLDL = assay: NO and ONOO^− release from HUVECs exposed to oxLDL, nanosensors (Example 8); type: cell-based, human; conditions: oxLDL 20 min, then treatment for 1 hour; EPA 10 μM, ATM 1.0 μM
Protocol: Human umbilical vein endothelial cells (HUVECs) were isolated into primary cultures from female donors by Clonetics (San Diego, Calif.) and purchased as proliferating cells. All cell culture donors were healthy, with no pregnancy or prenatal complications. […] The confluent cells (4 to 5×10^5 cells/35 mm dish) were placed with minimum essential medium containing 3 mM L-arginine and 0.1 mM BH4 [(6R)-5,6,7,8-tetrahydrobiopterin]. Before experimental use, the cells (from second or third passage) were rinsed twice with Tyrode-HEPES buffer with 1.8 mM CaCl2).
The omega-3 fatty acids (O3FAs) cis-5,8,11,14,17-eicosapentaenoic acid (EPA) and docosahexaenoic acid (DHA) were purchased from Sigma-Aldrich (St. Louis, Mo.) and prepared initially at 11 mM in redistilled ethanol. Primary and secondary O3FA stock solutions were prepared and stored under argon at −20° C.
The oxLDL causes eNOS uncoupling and endothelial dysfunction to reproduce disease-like conditions. 25 Venous blood from healthy normolipidemic volunteers was collected into Na-EDTA (1 mg/mL blood) vacuum tubes after a 12-hour fast. Plasma was immediately separated by centrifugation at 3,000 g for 10 minutes at 4° C.
Tris-NaCl buffer was added to the dialyzed LDL to adjust the protein concentration to 30 mg/mL. A 1-mL aliquot of 20 μM CuSO4 was added to 1 mL of dialyzed normal LDL.
Oxidation was monitored by the use of measurements of TBARS. Briefly, LDL was incubated with thiobarbituric acid (0.5 wt/vol, in H2SO4, 50 mM) for 30 minutes at 100° C. […] TBARS concentration was determined as malondialdehyde (MDA) equivalents with the use of an MDA standard curve.
Concurrent measurements of NO and ONOO^− were performed with tandem electrochemical nanosensors combined into one working unit with a total diameter of 200-400 nm. Their design was based on previously developed and chemically modified carbon-fiber technology. Each of the nanosensors was made by depositing a sensing material on the tip of a carbon fiber (length 4 to 5 μm, diameter 100-200 nm). The fibers were sealed with nonconductive epoxy and electrically connected to copper wires with conductive silver epoxy. Conductive films of polymeric Ni(II) tetrakis (3-methoxy-4-hydroxyphenyl) porphyrin and Mn(III) [2.2] paracyclophanylporphyrin were used for the NO and ONOO^− sensors, respectively.
The amperometric method (with a response time of 0.1 ms) provides a quantitative signal (current) that is directly proportional to changes (from basal levels) in NO or ONOO^− concentration. Amperometric measurements were performed with a Gamry III double-channel potentiostat. Basal NO or ONOO^− levels were measured by differential pulse voltammetry in separate experiments.
All measurements of NO and ONOO^− were performed on intact endothelial cells. The NO/ONOO^− nanosensor module was positioned 5±2 μm from the surface of each individual endothelial cell using a computer-controlled M3301 micromanipulator (x-y-z resolution of 0.2 μm) and microscope (both from World Precision Instruments, Berlin, Germany) fitted with a CD camera.
Endothelial basal media was used for all the treatments. Controls were supplied with an equivalent volume of endothelial basal media.
Data are presented as mean±S.D. for (N) separate samples or experiments. Differences between groups were analyzed using the two-tailed, Student t-test (for comparisons between only two groups) or ANOVA followed by Student-Newman-Keuls multiple comparisons post-hoc analysis (for comparisons between three or more groups). Only differences with probability values less than 0.05 were considered significant.

HUVECs = assay: NO release from HUVECs incubated with agent-treated oxidized sdLDL (Example 12); type: cell-based, human; conditions: oxidized sdLDL pretreated with agent at 10.0 μM
Protocol: All samples, with the exception of non-oxidized sdLDL controls, were subjected to copper-induced oxidation for 1 hour. Human umbilical vein endothelial cells (HUVECs) were incubated with the various sdLDL samples, stimulated with calcium, and monitored for nitric oxide (NO) and peroxynitrite (ONOO^−) release using nanosensor technology.

SMILES: CCCCC/C=C\C/C=C\C/C=C\C/C=C\CCCC(=O)O [AA, arachidonic acid]
- % change Vs control [1]: −45.2% and −46.8 ± 15.2%
- Relative Cholesterol Domain Preak Intensity [1]: 22.5 ± 4.3

SMILES: CC/C=C\C/C=C\C/C=C\CCCCCCCC(=O)O [ALA, α-linolenic acid]
- % change Vs control [1]: −46.8% and −45.2 ± 11.3%
- Relative Cholesterol Domain Preak Intensity [1]: 23.2 ± 0.6

SMILES: CC1(C)[C@@H](O[C@H]2O[C@H](C(=O)O)[C@@H](O)[C@H](O)[C@H]2O[C@@H]2O[C@H](C(=O)O)[C@@H](O)[C@H](O)[C@H]2O)CC[C@]2(C)[C@H]3C(=O)C=C4[C@@H]5C[C@@](C)(C(=O)O)CC[C@]5(C)CC[C@@]4(C)[C@]3(C)CC[C@@H]12 [Glyc, glycyrrhizin]
- reduction in cholesterol domain peaks as compared to vehicle treatment ([1]; 1:30): 54.9%
- % change Vs control [1]: −54.9 ± 12.3%
- Relative Cholesterol Domain Preak Intensity [1]: 19.1 ± 1.2
- Relative Cholesterol Domain Preak Intensity ([1]; listed as glycyrrhizin): 19.1±1.2

SMILES: CC(C)OC(=O)C(C)(C)Oc1ccc(C(=O)c2ccc(Cl)cc2)cc1 [fenofibrate]
- ONOO^− (HUVECs exposed to oxLDL): 299 ± 24
- reduction of NO release as compared to vehicle-treated, oxidized sdLDL (HUVECs): 21%
